In one assay the target is T1, recombinant human MER (Homo sapiens, UniProt Q12866).
T1 construct: purchased Invitrogen
T1 sequence (Q12866 21-999): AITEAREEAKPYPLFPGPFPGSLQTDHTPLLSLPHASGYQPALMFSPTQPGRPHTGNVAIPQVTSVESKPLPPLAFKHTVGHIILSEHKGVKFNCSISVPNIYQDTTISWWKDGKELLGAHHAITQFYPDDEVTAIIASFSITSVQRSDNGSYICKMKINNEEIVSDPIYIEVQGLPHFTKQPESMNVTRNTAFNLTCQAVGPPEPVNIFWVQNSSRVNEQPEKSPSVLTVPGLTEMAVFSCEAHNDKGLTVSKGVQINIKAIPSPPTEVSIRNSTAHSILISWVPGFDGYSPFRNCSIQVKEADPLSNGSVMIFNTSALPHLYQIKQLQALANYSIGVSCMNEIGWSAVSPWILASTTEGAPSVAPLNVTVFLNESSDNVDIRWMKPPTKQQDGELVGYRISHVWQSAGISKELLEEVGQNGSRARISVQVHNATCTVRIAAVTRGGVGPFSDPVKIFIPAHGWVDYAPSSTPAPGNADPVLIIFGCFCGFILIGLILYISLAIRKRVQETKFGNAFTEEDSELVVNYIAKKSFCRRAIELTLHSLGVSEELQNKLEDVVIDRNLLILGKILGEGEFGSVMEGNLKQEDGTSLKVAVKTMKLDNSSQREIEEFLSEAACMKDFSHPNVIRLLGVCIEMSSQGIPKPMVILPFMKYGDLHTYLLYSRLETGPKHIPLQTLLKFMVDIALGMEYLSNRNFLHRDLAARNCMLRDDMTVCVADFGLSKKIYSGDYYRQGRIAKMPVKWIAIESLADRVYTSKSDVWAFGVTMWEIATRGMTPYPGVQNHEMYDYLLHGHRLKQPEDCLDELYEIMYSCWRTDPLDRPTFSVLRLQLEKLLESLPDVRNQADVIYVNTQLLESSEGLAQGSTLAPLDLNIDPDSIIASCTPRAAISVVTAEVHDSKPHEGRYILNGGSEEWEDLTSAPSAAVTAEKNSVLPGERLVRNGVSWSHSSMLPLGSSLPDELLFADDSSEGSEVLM
Nature of the assay: Biochemical potency, HTRF KinEASE-TK kinase assay. To be noted: 1 nM MER, 700 μM ATP. Summed up:
(§1)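 Enzyme (AXL 5 nM; TYRO3 or MER 1 nM final) was preincubated with compound for 1 h at RT, then reacted for 2 h at RT with 800 nM biotinylated TK substrate and 700 µM ATP in HEPES pH 7.4, MgCl2, DTT, BSA, 1% DMSO. Percent activity came from the HTRF 665/620 ratio.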
On the technique in general: Time-resolved FRET reads energy transfer from a long-lived donor to a nearby acceptor.

A further assay concerns the target T2, recombinant human TYRO3 (Homo sapiens, UniProt Q06418).
T2 construct: purchased Invitrogen
T2 sequence (Q06418 41-890): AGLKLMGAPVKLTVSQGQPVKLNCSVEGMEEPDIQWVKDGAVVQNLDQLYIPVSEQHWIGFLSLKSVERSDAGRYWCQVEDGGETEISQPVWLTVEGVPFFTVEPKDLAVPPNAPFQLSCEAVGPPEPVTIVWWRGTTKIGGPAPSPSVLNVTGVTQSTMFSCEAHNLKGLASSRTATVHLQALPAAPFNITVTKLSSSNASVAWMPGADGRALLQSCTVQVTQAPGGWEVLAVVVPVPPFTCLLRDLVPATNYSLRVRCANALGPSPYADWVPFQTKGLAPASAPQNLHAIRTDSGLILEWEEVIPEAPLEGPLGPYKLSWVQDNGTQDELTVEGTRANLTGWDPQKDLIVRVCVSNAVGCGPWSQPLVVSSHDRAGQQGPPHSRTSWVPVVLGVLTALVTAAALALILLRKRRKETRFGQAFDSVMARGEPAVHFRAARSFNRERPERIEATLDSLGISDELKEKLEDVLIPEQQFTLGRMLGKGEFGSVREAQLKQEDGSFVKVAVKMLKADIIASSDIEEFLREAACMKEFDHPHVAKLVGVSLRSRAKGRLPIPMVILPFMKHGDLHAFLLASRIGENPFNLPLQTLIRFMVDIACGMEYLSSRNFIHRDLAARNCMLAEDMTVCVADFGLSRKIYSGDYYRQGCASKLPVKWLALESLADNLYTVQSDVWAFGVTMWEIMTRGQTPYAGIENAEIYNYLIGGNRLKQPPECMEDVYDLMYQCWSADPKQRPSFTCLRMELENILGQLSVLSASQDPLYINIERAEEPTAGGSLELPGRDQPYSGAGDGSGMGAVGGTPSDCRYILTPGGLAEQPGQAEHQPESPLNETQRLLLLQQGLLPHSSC
Put plainly: Biochemical potency, HTRF KinEASE-TK kinase assay. To be noted: 1 nM TYRO3, 700 μM ATP. Summed up:
as §1

Molecules are shown by their SMILES.

Experimental findings from patent US12195482B1 (Arcus Biosciences, Inc., priority 2022, dated 2025) are described below.

One may read the IC50 as the midpoint of a concentration-inhibition curve. For `COc1ccnc(-c2ccc(-c3n[nH]c4ncc(-c5ccc6c(c5)CC[C@@H](N5C7COCC5C7)CC6)cc34)cc2)c1C` [Example 87, 6-[(7S)-3-[3-[4-(4-Methoxy-3-methylpyridin-2-yl)phenyl]-1H-pyrazolo[3,4-b]pyridin-5-yl]-6,7,8,9-tetrahydro-5H-benzo[7]annulen-7-yl]-3-oxa-6-azabicyclo[3.1.1]heptane], the IC50 at recombinant human MER and at recombinant human TYRO3 was 100 to 1000 nM in each case.
